Values quoted from earlier work in PubChem BioAssay AID1259409 (Chemical Carcinogenesis Research Information System (CCRIS), 2018).

Tested on: rodent chemically induced tumor inhibition, incidence and multiplicity
Test: CCRIS tumor inhibitor studies
Details: Carcinogen: 4-(METHYLNITROSAMINO)-1-(3-PYRIDYL)-1-BUTANONE, 64091-91-4, Dose [Inhibitor]: 0, Promoter: NONE USED

SMILES: S=C=NCCc1ccccc1
- tumour outcome (control, treated, inhibition, significance) (1 UMOL ONCE 2 HR PRIOR TO CARCINOGEN DOSE (STUDY DURATION: 16 WK), Route [Inhibitor]: GAVAGE, Species: MOUSE, Strain/Sex: STRAIN-A/FEMALE, Target Tissue: Type of Lesion: LUNG: ADENOMA, Dose [Carcinogen]: 10 UMOL IN 0.1 ML SALINE ONCE): 100%, 100%, 0%, not significant
- tumour outcome (control, treated, inhibition, significance) (1 UMOL/G DIET FOR 15 WK BEGINNING 1 WK POST CARCINOGEN DOSE (STUDY DURATION: 16 WK), Route [Inhibitor]: ORAL, Species: MOUSE, Strain/Sex: STRAIN-A/FEMALE, Target Tissue: Type of Lesion: LUNG: ADENOMA, Dose [Carcinogen]: 10 UMOL ONCE): 100%, 100%, 0%, not significant
- tumour outcome (control, treated, inhibition, significance) (3 UMOL/G DIET FOR 15 WK BEGINNING 1 WK POST CARCINOGEN DOSE (STUDY DURATION: 16 WK), Route [Inhibitor]: ORAL, Species: MOUSE, Strain/Sex: STRAIN-A/FEMALE, Target Tissue: Type of Lesion: LUNG: ADENOMA, Dose [Carcinogen]: 10 UMOL ONCE): 100%, 100%, 0%, not significant
- tumour outcome (control, treated, inhibition, significance) (3 UMOL/G DIET FOR 21 WK BEGINNING 1 WK PRIOR TO FIRST CARCINOGEN DOSE (STUDY DURATION: 104 WK), Route [Inhibitor]: ORAL, Species: RAT, Strain/Sex: F344/MALE, Target Tissue: Type of Lesion: LIVER: ADENOMA, Dose [Carcinogen]: 1.76 MG/KG 3/WK FOR 20 WK): 12/40 (30%), 9/40 (23%), 23%, not calculated
- tumour outcome (control, treated, inhibition, significance) (3 UMOL/G DIET FOR 21 WK BEGINNING 1 WK PRIOR TO FIRST CARCINOGEN DOSE (STUDY DURATION: 104 WK), Route [Inhibitor]: ORAL, Species: RAT, Strain/Sex: F344/MALE, Target Tissue: Type of Lesion: LIVER: CARCINOMA, Dose [Carcinogen]: 1.76 MG/KG 3/WK FOR 20 WK): 3/40 (8%), 5/40 (13%), -63%, not calculated
- tumour outcome (control, treated, inhibition, significance) (3 UMOL/G DIET FOR 21 WK BEGINNING 1 WK PRIOR TO FIRST CARCINOGEN DOSE (STUDY DURATION: 104 WK), Route [Inhibitor]: ORAL, Species: RAT, Strain/Sex: F344/MALE, Target Tissue: Type of Lesion: LUNG: ADENOMA, Dose [Carcinogen]: 1.76 MG/KG 3/WK FOR 20 WK): 8/40 (20%), 5/40 (13%), 35%, not calculated
- tumour outcome (control, treated, inhibition, significance) (3 UMOL/G DIET FOR 21 WK BEGINNING 1 WK PRIOR TO FIRST CARCINOGEN DOSE (STUDY DURATION: 104 WK), Route [Inhibitor]: ORAL, Species: RAT, Strain/Sex: F344/MALE, Target Tissue: Type of Lesion: LUNG: CARCINOMA, Dose [Carcinogen]: 1.76 MG/KG 3/WK FOR 20 WK): 24/40 (60%), 12/40 (30%), 50%, not calculated
- tumour outcome (control, treated, inhibition, significance) (3 UMOL/G DIET FOR 21 WK BEGINNING 1 WK PRIOR TO FIRST CARCINOGEN DOSE (STUDY DURATION: 104 WK), Route [Inhibitor]: ORAL, Species: RAT, Strain/Sex: F344/MALE, Target Tissue: Type of Lesion: NASAL CAVITY: BENIGN TUMOR, Dose [Carcinogen]: 1.76 MG/KG 3/WK FOR 20 WK): 8/40 (20%), 6/40 (15%), 25%, not calculated
- tumour outcome (control, treated, inhibition, significance) (3 UMOL/G DIET FOR 21 WK BEGINNING 1 WK PRIOR TO FIRST CARCINOGEN DOSE (STUDY DURATION: 104 WK), Route [Inhibitor]: ORAL, Species: RAT, Strain/Sex: F344/MALE, Target Tissue: Type of Lesion: NASAL CAVITY: SQUAMOUS CELL CARCINOMA, Dose [Carcinogen]: 1.76 MG/KG 3/WK FOR 20 WK): 3/40 (8%), 7/40 (3%), 63%, not calculated
- tumour outcome (control, treated, inhibition, significance) (3 UMOL/G OF DIET FOR 112 WK BEGINNING 1 WK PRIOR TO CARCINOGEN TREATMENT (STUDY DURATION: 112 WK), Route [Inhibitor]: ORAL, Species: RAT, Strain/Sex: F344/MALE, Target Tissue: Type of Lesion: HEMATOPOIETIC SYSTEM: LEUKEMIA OR LYMPHOMA, Dose [Carcinogen]: 2 PPM IN DRINKING WATER FOR 111 WK): 26/56 (46%), 28/59 (47%), -2%, not significant
- tumour outcome (control, treated, inhibition, significance) (3 UMOL/G OF DIET FOR 112 WK BEGINNING 1 WK PRIOR TO CARCINOGEN TREATMENT (STUDY DURATION: 112 WK), Route [Inhibitor]: ORAL, Species: RAT, Strain/Sex: F344/MALE, Target Tissue: Type of Lesion: LIVER: ADENOMA OR CARCINOMA, Dose [Carcinogen]: 2 PPM IN DRINKING WATER FOR 111 WK): 5/55 (9%), 2/56 (4%), 56%, not significant
- tumour outcome (control, treated, inhibition, significance) (3 UMOL/G OF DIET FOR 112 WK BEGINNING 1 WK PRIOR TO CARCINOGEN TREATMENT (STUDY DURATION: 112 WK), Route [Inhibitor]: ORAL, Species: RAT, Strain/Sex: F344/MALE, Target Tissue: Type of Lesion: LUNG: ADENOCARCINOMA, Dose [Carcinogen]: 2 PPM IN DRINKING WATER FOR 111 WK): 23/56 (41%), 1/59 (2%), 95%, p=0.00001
- tumour outcome (control, treated, inhibition, significance) (3 UMOL/G OF DIET FOR 112 WK BEGINNING 1 WK PRIOR TO CARCINOGEN TREATMENT (STUDY DURATION: 112 WK), Route [Inhibitor]: ORAL, Species: RAT, Strain/Sex: F344/MALE, Target Tissue: Type of Lesion: LUNG: ADENOMA, Dose [Carcinogen]: 2 PPM IN DRINKING WATER FOR 111 WK): 16/56 (29%), 2/59 (3%), 90%, p=0.0002
- tumour outcome (control, treated, inhibition, significance) (3 UMOL/G OF DIET FOR 112 WK BEGINNING 1 WK PRIOR TO CARCINOGEN TREATMENT (STUDY DURATION: 112 WK), Route [Inhibitor]: ORAL, Species: RAT, Strain/Sex: F344/MALE, Target Tissue: Type of Lesion: NASAL CAVITY: PAPILLOMA OR CARCINOMA, Dose [Carcinogen]: 2 PPM IN DRINKING WATER FOR 111 WK): 1/48 (2%), 0/53 (0%), 100%, not significant
- tumour outcome (control, treated, inhibition, significance) (3 UMOL/G OF DIET FOR 112 WK BEGINNING 1 WK PRIOR TO CARCINOGEN TREATMENT (STUDY DURATION: 112 WK), Route [Inhibitor]: ORAL, Species: RAT, Strain/Sex: F344/MALE, Target Tissue: Type of Lesion: PANCREAS (ENDOCRINE): BENIGN TUMOR, Dose [Carcinogen]: 2 PPM IN DRINKING WATER FOR 111 WK): 5/52 (10%), 7/59 (12%), -20%, not significant
- tumour outcome (control, treated, inhibition, significance) (3 UMOL/G OF DIET FOR 112 WK BEGINNING 1 WK PRIOR TO CARCINOGEN TREATMENT (STUDY DURATION: 112 WK), Route [Inhibitor]: ORAL, Species: RAT, Strain/Sex: F344/MALE, Target Tissue: Type of Lesion: PANCREAS (EXOCRINE): BENIGN TUMOR, Dose [Carcinogen]: 2 PPM IN DRINKING WATER FOR 111 WK): 1/52 (2%), 8/59 (14%), -600%, p=0.025
